Test results taken from paper PMC7979765, “trans-Translation inhibitors bind to a novel site on the ribosome and clear Neisseria gonorrhoeae in vivo” (Nature Communications, 2021).
Where “and” joins values, the source holds several entries; their conditions need not be identical. Equal values may be shown once. Read-outs that look alike come from different tables or passages of the source.

What was measured:
Mycoplasma pneumoniae = assay: MIC, microbroth dilution; type: cell-based
hERG = target: T1, hERG (Homo sapiens, UniProt Q12809); assay: Cardiac Ion Channel Panel; type: cell-based; conditions: hERG antagonist; CYL8038QP2DR; read-out: IC50 (µM) reported
T1 construct: Eurofins Discovery Services (contract assay) CYL8038QP2DR
Experimental: (§1) Several in vitro selectivity assays were performed at Eurofins Discovery Services using established methods and controls that behaved as expected (Supplementary Tables 5 and 6). […] For receptor panel profiling, MBX-4132 was evaluated at 10 μM and activity of >50% (agonist or antagonist; note that negative % inhibition indicates agonism) was scored as active.

Nav1.5 late current = target: T2, Nav1.5 late current (Homo sapiens, UniProt Q14524); assay: Cardiac Ion Channel Panel; type: cell-based
T2 construct: Eurofins Discovery Services (contract assay) CYL8004QP2DR; CYL7004QP1DR; CYL7004QP2DR
Experimental: as §1

Nav1.5 = target: T3, Nav1.5 (Homo sapiens, UniProt Q14524); assay: Cardiac Ion Channel Panel; type: cell-based
T3 construct: Eurofins Discovery Services (contract assay) CYL8004QP2DR; CYL7004QP1DR; CYL7004QP2DR
Experimental: as §1

Kv4.3/ChIP2 = target: T4, Kv4.3/ChIP2 (Homo sapiens, UniProt Q9UK17); assay: Cardiac Ion Channel Panel; type: cell-based; conditions: Kv4.3/ChIP2 antagonist; Peak $ End; CYL8069QP2DR; read-out: IC50 (µM) reported
T4 construct: Eurofins Discovery Services (contract assay) CYL8069QP2DR
Experimental: as §1

Kir2.1 = target: T5, Kir2.1 (Homo sapiens, UniProt P63252); assay: Cardiac Ion Channel Panel; type: cell-based; conditions: Kir2.1 antagonist; Peak $ End; CYL8032QP2DR; read-out: IC50 (µM) reported
T5 construct: Eurofins Discovery Services (contract assay) CYL8032QP2DR
Experimental: as §1

[1] = test system: Salmonella typhimurium strains TA98 and TA100; type: cell-based
Experimental: The Ames assay was performed at SRI Biosciences, following the standard protocols established there[55]–[57]. In brief, samples were evaluated for their ability to induce genetic damage using the plate incorporation method with Salmonella typhimurium strains TA98 and TA100 with and without a metabolic activation mixture containing 10% Aroclar-1254-induced rat-liver microsomes (S9). MBX-4132 was tested from a 5 mg/mL DMSO stock solution (the solubility limit), which provided plate concentrations up to 500 µg/plate, with serial dilutions accessing doses as low as 5 µg/plate. MBX-4132 precipitated at the two highest dose levels (500 and 100 µg/plate), but at 50 µg/plate, no precipitation was observed. […] Test articles were considered mutagenic when the mean number of revertant colonies increased in a dose-dependent manner. Some cytotoxicity was observed, but sufficient colonies were formed to allow analysis. […] Data for 2-nitrofluorene and sodium azide (positive controls) and DMSO (negative control) were included for reference.

Muscarinic M3 = target: T6, Muscarinic M3 (Homo sapiens, UniProt P20309); assay: Receptor Profiling 252810; type: binding
T6 construct: purchased Eurofins Discovery Services (Panlabs safety panel)
Experimental: as §1

Caco-2 cells = assay: Caco-2 permeability; type: in vitro ADME, human
Experimental: (§2) To evaluate the potential for oral bioavailability, the ability of prioritized compounds to permeate a monolayer of Caco-2 (ATCC HTB-37) intestinal epithelial cells was determined as described. Caco-2 permeability values (Papp) > 1 × 10^−6 cm/sec are predictive of oral bioavailability.

Caco-2 permeability = type: in vitro ADME, human; conditions: human
Experimental: as §2

CYP3A = CYP3A (Homo sapiens, UniProt P08684); assay: Cyp inhibition assays 4873, 4872; type: in vitro ADME
Experimental: as §1

[2] = test system: Calcium Channel L-Type, Dihydropyridine; assay: Receptor Profiling 214600; type: binding, rat; conditions: 10 μM
Experimental: as §1

T2 sequence (Q14524 whole entry): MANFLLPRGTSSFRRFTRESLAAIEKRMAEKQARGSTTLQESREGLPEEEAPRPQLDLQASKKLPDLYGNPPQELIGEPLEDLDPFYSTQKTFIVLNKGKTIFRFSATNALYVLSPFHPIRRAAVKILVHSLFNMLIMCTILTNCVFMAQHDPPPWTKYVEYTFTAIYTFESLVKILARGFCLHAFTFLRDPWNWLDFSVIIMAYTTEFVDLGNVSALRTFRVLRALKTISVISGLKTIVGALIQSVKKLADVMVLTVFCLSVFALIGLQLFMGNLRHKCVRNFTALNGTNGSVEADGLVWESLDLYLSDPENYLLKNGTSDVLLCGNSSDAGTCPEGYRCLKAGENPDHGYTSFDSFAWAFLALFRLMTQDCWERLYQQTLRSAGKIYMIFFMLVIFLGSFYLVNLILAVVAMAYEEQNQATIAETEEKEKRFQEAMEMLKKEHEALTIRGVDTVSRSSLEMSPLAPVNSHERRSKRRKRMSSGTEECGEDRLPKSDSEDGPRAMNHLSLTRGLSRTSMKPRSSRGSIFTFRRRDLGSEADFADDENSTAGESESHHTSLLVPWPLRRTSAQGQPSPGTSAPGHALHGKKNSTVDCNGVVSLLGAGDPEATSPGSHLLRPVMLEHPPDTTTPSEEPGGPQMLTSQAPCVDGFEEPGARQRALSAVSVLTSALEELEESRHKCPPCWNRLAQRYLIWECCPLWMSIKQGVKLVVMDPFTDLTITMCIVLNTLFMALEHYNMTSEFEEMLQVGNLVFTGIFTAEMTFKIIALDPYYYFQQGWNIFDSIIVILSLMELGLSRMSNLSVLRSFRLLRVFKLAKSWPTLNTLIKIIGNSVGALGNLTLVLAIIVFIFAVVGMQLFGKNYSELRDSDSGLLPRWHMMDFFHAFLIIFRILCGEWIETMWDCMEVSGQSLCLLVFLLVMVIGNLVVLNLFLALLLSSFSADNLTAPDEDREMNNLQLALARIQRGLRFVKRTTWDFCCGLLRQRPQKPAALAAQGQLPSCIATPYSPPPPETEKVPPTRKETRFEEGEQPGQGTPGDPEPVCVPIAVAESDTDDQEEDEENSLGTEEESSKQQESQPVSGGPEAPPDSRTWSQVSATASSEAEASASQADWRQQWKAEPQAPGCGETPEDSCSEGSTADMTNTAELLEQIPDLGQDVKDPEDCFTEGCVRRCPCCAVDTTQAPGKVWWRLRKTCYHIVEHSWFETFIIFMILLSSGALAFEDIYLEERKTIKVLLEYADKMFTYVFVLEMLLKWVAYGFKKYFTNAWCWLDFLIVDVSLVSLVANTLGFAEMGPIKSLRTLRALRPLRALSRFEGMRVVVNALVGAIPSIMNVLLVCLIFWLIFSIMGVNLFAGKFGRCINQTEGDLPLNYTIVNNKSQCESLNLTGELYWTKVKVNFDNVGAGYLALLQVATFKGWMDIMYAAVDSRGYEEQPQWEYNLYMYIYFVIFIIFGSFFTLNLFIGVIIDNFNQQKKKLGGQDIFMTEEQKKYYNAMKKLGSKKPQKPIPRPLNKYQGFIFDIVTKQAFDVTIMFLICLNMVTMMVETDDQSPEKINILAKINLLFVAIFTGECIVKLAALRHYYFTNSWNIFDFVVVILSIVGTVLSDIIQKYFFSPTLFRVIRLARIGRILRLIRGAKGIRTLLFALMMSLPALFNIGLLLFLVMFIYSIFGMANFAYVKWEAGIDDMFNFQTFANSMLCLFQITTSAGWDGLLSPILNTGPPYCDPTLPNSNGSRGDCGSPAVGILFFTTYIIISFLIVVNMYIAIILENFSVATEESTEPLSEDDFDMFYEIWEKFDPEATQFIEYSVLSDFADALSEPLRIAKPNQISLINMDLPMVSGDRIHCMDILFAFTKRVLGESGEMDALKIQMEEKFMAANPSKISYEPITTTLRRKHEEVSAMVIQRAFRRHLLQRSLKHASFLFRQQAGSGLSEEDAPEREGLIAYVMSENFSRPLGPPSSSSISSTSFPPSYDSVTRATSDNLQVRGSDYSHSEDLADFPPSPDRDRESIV
CYP3A, sequence (P08684 2-503): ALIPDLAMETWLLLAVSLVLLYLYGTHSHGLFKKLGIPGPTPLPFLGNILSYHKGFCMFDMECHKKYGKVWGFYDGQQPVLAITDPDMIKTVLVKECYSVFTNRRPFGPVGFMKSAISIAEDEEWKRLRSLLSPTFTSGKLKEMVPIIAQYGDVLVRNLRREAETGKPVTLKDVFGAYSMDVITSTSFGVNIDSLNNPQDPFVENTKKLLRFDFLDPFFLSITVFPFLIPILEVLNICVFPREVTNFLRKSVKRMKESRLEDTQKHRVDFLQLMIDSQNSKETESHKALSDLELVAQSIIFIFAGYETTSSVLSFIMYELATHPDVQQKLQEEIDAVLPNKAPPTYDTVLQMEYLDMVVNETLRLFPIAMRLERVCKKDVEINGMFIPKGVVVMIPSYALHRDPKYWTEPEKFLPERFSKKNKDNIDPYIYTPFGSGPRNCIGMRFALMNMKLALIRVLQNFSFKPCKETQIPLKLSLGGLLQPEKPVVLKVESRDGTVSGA
T1 sequence (Q12809 whole entry): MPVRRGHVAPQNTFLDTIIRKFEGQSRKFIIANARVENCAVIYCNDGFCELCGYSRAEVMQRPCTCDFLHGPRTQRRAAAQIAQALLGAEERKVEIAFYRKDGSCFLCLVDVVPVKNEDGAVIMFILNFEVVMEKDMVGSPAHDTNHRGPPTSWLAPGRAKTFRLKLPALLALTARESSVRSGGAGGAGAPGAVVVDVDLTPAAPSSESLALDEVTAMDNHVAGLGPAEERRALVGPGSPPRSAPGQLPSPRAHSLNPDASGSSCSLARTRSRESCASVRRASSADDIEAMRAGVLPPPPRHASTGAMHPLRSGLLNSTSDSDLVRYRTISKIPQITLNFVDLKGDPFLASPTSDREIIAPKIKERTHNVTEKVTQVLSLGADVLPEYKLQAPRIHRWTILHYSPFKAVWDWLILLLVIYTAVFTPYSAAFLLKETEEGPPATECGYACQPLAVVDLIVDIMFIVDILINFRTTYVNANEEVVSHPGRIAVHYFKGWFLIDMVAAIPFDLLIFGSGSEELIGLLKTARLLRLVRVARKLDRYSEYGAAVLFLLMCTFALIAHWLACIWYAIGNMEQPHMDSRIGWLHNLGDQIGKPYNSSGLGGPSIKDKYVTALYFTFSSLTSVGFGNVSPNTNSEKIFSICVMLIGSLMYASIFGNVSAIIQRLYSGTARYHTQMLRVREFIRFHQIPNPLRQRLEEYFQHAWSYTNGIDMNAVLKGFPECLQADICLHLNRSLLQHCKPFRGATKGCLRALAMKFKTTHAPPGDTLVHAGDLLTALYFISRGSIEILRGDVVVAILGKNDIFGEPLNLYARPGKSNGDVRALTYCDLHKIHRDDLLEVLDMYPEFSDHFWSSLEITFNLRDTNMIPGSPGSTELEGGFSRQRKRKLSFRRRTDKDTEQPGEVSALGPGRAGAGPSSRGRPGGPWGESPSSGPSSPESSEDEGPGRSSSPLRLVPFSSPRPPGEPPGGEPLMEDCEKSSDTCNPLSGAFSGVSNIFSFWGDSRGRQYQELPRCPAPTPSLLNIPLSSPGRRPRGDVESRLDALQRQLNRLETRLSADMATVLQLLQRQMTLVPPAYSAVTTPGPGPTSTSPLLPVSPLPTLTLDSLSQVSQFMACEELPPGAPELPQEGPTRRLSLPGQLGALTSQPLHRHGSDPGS
T5 sequence (P63252 whole entry): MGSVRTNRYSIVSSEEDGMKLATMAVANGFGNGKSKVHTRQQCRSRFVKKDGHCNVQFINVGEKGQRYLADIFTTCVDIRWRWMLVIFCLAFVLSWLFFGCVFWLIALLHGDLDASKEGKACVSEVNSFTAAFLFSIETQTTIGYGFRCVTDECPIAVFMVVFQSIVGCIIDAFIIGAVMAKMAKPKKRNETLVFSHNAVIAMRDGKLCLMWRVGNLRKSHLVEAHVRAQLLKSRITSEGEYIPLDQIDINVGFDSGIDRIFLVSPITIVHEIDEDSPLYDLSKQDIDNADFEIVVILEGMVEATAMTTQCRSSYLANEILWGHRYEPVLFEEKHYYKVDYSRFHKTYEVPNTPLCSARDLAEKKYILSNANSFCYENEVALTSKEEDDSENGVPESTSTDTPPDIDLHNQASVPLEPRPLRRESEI
T4 sequence (Q9UK17 whole entry): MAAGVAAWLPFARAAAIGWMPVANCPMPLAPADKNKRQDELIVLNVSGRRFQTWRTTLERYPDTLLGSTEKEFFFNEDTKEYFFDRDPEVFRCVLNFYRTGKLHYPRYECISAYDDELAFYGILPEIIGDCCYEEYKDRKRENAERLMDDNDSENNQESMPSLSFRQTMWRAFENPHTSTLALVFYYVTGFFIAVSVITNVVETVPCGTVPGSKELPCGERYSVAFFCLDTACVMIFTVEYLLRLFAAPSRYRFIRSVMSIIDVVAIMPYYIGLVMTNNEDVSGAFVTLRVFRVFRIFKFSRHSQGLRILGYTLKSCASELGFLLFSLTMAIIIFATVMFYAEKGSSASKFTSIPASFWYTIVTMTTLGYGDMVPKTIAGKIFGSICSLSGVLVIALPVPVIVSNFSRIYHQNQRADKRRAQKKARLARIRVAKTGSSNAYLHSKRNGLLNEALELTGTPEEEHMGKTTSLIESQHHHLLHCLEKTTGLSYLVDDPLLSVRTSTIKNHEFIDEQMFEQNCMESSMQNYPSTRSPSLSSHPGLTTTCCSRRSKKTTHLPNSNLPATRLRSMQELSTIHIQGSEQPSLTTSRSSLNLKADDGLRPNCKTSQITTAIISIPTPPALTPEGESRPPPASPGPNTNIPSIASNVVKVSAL
T4 sequence (Q9NS61 whole entry partner): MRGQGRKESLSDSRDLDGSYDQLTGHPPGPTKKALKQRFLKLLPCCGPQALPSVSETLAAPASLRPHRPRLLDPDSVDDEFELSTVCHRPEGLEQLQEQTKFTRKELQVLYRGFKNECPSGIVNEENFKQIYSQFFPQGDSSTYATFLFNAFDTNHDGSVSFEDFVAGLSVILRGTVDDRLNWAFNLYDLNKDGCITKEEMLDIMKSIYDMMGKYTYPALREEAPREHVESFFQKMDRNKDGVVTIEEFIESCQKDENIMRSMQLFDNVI

O=C(Nc1nnc(-c2ccc(F)cc2)o1)N1CCc2ccccc2C1 [MBX-4132]
MIC (Mycoplasma pneumoniae; Mycoplasma pneumoniae ATCC 15531, replicates): ≥34 µg/mL | MIC (Mycoplasma pneumoniae; Mycoplasma, ATCC15531, strain ATCC 15531, read-out: MIC): ≥ 34 µg/mL | IC50 (hERG): > 30 µM | IC50 (Nav1.5 late current): > 30 µM | IC50 (Nav1.5 late current; read-out: Est. IC50, Antagonist mode): > 30 µM | IC50 (Nav1.5 late current; read-out: IC50 (µM) reported, Nav1.5 late current agonist, CYL7004QP1DR): > 30 µM | IC50 (Nav1.5 late current; read-out: IC50 (µM) reported, Nav1.5 late current antagonist, CYL7004QP2DR): > 30 µM | IC50 (Nav1.5): > 30 µM | IC50 (Kv4.3/ChIP2): > 30 µM | IC50 (Kir2.1): > 30 µM | Average Mean Revertants/plate ([1]; TA98, 1 µg/plate, + S9): 23.5 Revertants/plate | Average Mean Revertants/plate ([1]; TA98, 1 µg/plate, no S9): 21.5 Revertants/plate | Mean Revertants/plate ([1]; TA98, 1 µg/plate, no S9, replicates): 23 Revertants/plate and 20 Revertants/plate | Average Mean Revertants/plate ([1]; TA98, 5 µg/plate, + S9): 22 Revertants/plate | Average Mean Revertants/plate ([1]; TA98, 5 µg/plate, no S9): 17.0 Revertants/plate | Mean Revertants/plate ([1]; TA98, 5 µg/plate, no S9, replicates): 18 Revertants/plate and 16 Revertants/plate | Average Mean Revertants/plate ([1]; TA98, 10 µg/plate, + S9): 21 Revertants/plate | Average Mean Revertants/plate ([1]; TA98, 10 µg/plate, no S9): 15.0 Revertants/plate | Mean Revertants/plate ([1]; TA98, 10 µg/plate, no S9, replicates): 14 Revertants/plate and 16 Revertants/plate | Average Mean Revertants/plate ([1]; TA98, 50 µg/plate, + S9): 18.5 Revertants/plate | Average Mean Revertants/plate ([1]; TA98, 50 µg/plate, no S9): 20.0 Revertants/plate | Mean Revertants/plate ([1]; TA98, 50 µg/plate, no S9, replicates): 18 Revertants/plate and 22 Revertants/plate | Average Mean Revertants/plate ([1]; TA98, 100 µg/plate, + S9): 17.5 Revertants/plate | Average Mean Revertants/plate ([1]; TA98, 100 µg/plate, no S9): 20.0 Revertants/plate | Mean Revertants/plate ([1]; TA98, 100 µg/plate, no S9, replicates): 18 Revertants/plate and 22 Revertants/plate | Average Mean Revertants/plate ([1]; TA98, 500 µg/plate, + S9): 20 Revertants/plate | Average Mean Revertants/plate ([1]; TA98, 500 µg/plate, no S9): 17.5 Revertants/plate | Mean Revertants/plate ([1]; TA98, 500 µg/plate, no S9, replicates): 19 Revertants/plate and 16 Revertants/plate | Mean Revertants/plate ([1]; TA98, + S9, 1 µg/plate): 23.5 | Mean Revertants/plate ([1]; TA98, + S9, 5 µg/plate): 22.0 | Mean Revertants/plate ([1]; TA98, + S9, 10 µg/plate): 21.0 | Mean Revertants/plate ([1]; TA98, + S9, 50 µg/plate): 18.5 | Mean Revertants/plate ([1]; TA98, + S9, 100 µg/plate): 17.5 | Mean Revertants/plate ([1]; TA98, + S9, 500 µg/plate): 20.0 | Mean Revertants/plate ([1]; TA98, without S9, 1 µg/plate): 21.5 | Mean Revertants/plate ([1]; TA98, without S9, 5 µg/plate): 17.0 | Mean Revertants/plate ([1]; TA98, without S9, 10 µg/plate): 15.0 | Mean Revertants/plate ([1]; TA98, without S9, 50 µg/plate): 20.0 | Mean Revertants/plate ([1]; TA98, without S9, 100 µg/plate): 20.0 | Mean Revertants/plate ([1]; TA98, without S9, 500 µg/plate): 17.5 | revertant colonies vs DMSO control (in words) ([1]; TA98 and TA100, with and without S9, any concentration tested): no significant deviation | Average Mean Revertants/plate ([1]; TA100, 1 µg/plate, + S9): 107.5 Revertants/plate | Average Mean Revertants/plate ([1]; TA100, 1 µg/plate, no S9): 112.5 Revertants/plate | Mean Revertants/plate ([1]; TA100, 1 µg/plate, no S9, replicates): 108 Revertants/plate and 117 Revertants/plate | Average Mean Revertants/plate ([1]; TA100, 5 µg/plate, + S9): 125.5 Revertants/plate | Average Mean Revertants/plate ([1]; TA100, 5 µg/plate, no S9): 99.0 Revertants/plate | Mean Revertants/plate ([1]; TA100, 5 µg/plate, no S9, replicates): 98 Revertants/plate and 100 Revertants/plate | Average Mean Revertants/plate ([1]; TA100, 10 µg/plate, + S9): 102 Revertants/plate | Average Mean Revertants/plate ([1]; TA100, 10 µg/plate, no S9): 97.0 Revertants/plate | Mean Revertants/plate ([1]; TA100, 10 µg/plate, no S9, replicates): 94 Revertants/plate and 100 Revertants/plate | Average Mean Revertants/plate ([1]; TA100, 50 µg/plate, + S9): 71 Revertants/plate | Average Mean Revertants/plate ([1]; TA100, 50 µg/plate, no S9): 73.0 Revertants/plate | Mean Revertants/plate ([1]; TA100, 50 µg/plate, no S9, replicates): 79 Revertants/plate and 67 Revertants/plate | Average Mean Revertants/plate ([1]; TA100, 100 µg/plate, + S9): 43 Revertants/plate | Average Mean Revertants/plate ([1]; TA100, 100 µg/plate, no S9): 54.0 Revertants/plate | Mean Revertants/plate ([1]; TA100, 100 µg/plate, no S9, replicates): 55 Revertants/plate and 53 Revertants/plate | Average Mean Revertants/plate ([1]; TA100, 500 µg/plate, + S9): 19.5 Revertants/plate | Average Mean Revertants/plate ([1]; TA100, 500 µg/plate, no S9): 35.5 Revertants/plate | Mean Revertants/plate ([1]; TA100, 500 µg/plate, no S9, replicates): 38 Revertants/plate and 33 Revertants/plate | Mean Revertants/plate ([1]; TA100, + S9, 1 µg/plate): 107.5 | Mean Revertants/plate ([1]; TA100, + S9, 5 µg/plate): 125.5 | Mean Revertants/plate ([1]; TA100, + S9, 10 µg/plate): 102.0 | Mean Revertants/plate ([1]; TA100, + S9, 50 µg/plate): 71.0 | Mean Revertants/plate ([1]; TA100, + S9, 100 µg/plate): 43.0 | Mean Revertants/plate ([1]; TA100, + S9, 500 µg/plate): 19.5 | Mean Revertants/plate ([1]; TA100, without S9, 1 µg/plate): 112.5 | Mean Revertants/plate ([1]; TA100, without S9, 5 µg/plate): 99.0 | Mean Revertants/plate ([1]; TA100, without S9, 10 µg/plate): 97.0 | Mean Revertants/plate ([1]; TA100, without S9, 50 µg/plate): 73.0 | Mean Revertants/plate ([1]; TA100, without S9, 100 µg/plate): 54.0 | Mean Revertants/plate ([1]; TA100, without S9, 500 µg/plate): 35.5 | inhibition at 10 µM (Muscarinic M3): 5% | Caco-2 Papp (A to B) (Caco-2 cells; A to B): 11 x 10^-6 cms^-1 | Caco-2 (Papp; x 10-6 cms-1) A→B (Caco-2 cells; A→B, Replicate 1/2, Eurofins): 9.9 x 10-6 cms-1 | Caco-2 (Papp; x 10-6 cms-1) B→A (Caco-2 cells; B→A, Replicate 1/2, Eurofins): 8.19 x 10-6 cms-1 | Papp A→B (Caco-2 permeability; Caco-2, A to B, read-out: Caco-2 Papp (A to B)): 11.1 ×10⁻⁶ cm/s | Papp A→B (Caco-2 permeability; Caco-2, A→B, Average Value, Eurofins, read-out: Caco-2 A→B): 11.1 ×10⁻⁶ cm/s | Papp A→B (Caco-2 permeability; Caco-2, A→B, Replicate 1/2, Eurofins, read-out: Caco-2 A→B): 12.4 ×10⁻⁶ cm/s | Papp A→B (Caco-2 permeability; Caco-2, A→B, Reported value, Eurofins, read-out: Caco-2 A→B): 11.1 ×10⁻⁶ cm/s | Papp B→A (Caco-2 permeability; Caco-2, B to A, read-out: Caco-2 Papp B to A): 7.3 ×10⁻⁶ cm/s | Papp B→A (Caco-2 permeability; Caco-2, B→A, Average Value, Eurofins, read-out: Caco-2 B→A): 7.3 ×10⁻⁶ cm/s | Papp B→A (Caco-2 permeability; Caco-2, B→A, Replicate 1/2, Eurofins, read-out: Caco-2 B→A): 6.33 ×10⁻⁶ cm/s | Papp B→A (Caco-2 permeability; Caco-2, B→A, Reported value, Eurofins, read-out: Caco-2 B→A): 7.3 ×10⁻⁶ cm/s | pIC50 (µM) reported (CYP3A; CYP3A midazolam, catalog reference 4873): No activity | IC50 (CYP3A; human, probe testosterone): > 100 µM | % inhibition [2]: 11%
